From publication PMC6429710, “Structure–activity relationships in a series of antiplasmodial thieno[2,3-b]pyridines” (Malaria Journal, 2019)

How the values were obtained:
[1] = system: HEK293T cells; test: Cytotoxicity assay on HEK293 cells (PrestoBlue viability); type: cell-based, human; conditions: cell viability, 48 h; mean of six determinations, range in brackets; read-out: IC50 [µM], HEK 293T
Experimental: HEK293T cells were seeded into a solid black flat bottom 96 well plate (2.5 × 10^4 cells/well) in 200 μL Dulbecco Modified Eagle Medium (DMEM) supplemented with 10% fetal bovine serum and 1% Pen/Strep (final concentration of 100 U/mL Penicillin and 100 μg/mL Streptomycin). Cells were incubated at 37 °C under 5% CO2. After 18 h the supernatant was removed and fresh DMEM containing serial dilutions of compounds was added. Compounds were solubilized in DMSO (final DMSO concentration in HEK293T culture was 0.5%.) Wells containing 0.5% DMSO served as a negative control. Plates were incubated for further 48 h at 37 °C under 5% CO2. To monitor cell viability the supernatant was removed and cells were incubated with 200 μL 10% PrestoBlue (Invitrogen) in PBS at 37 °C. After 30 min fluorescence (λex = 560 nm, λem = 590 nm) was measured in an EnVision multilable plate reader (Perkin Elmer, integration time 0.1 s/well). Data points were plotted into Graphpad Prism, normalized to the DMSO control and IC50 values were calculated using nonlinear regression.

[2] = target: T1, PfGSK-3 (Plasmodium falciparum, UniProt O77344); test: biochemical; type: biochemical
T1 construct: 6xHis; made in house; host or cells: Escherichia coli C41
T1 sequence (O77344 1-440): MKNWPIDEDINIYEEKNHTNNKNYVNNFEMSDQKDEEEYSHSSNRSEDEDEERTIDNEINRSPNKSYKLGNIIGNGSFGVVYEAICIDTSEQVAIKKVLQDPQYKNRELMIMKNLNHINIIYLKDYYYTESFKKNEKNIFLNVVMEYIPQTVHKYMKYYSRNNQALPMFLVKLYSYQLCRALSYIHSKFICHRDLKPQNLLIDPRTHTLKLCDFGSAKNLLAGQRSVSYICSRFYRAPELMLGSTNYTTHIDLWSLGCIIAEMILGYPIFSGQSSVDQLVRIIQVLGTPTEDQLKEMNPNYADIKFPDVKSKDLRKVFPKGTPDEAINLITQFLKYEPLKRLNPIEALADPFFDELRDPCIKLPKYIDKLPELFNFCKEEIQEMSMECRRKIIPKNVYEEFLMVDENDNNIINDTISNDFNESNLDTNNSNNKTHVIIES
Experimental: PfGSK-3 was cloned into pOPIN F expression vector [41] using ligation independent cloning (InFusion, Takara Clontech). Expression vector was transformed into Escherichia coli C41 and expression of recombinant PfGSK3-6xHis was induced by incubation with 1 mM IPTG at 16 °C overnight.
Kinase activity was measured using Kinase-Glo Plus Luminescent Kinase Assay (Promega). 20 ng recombinant GSK-3 were incubated for 30 min at 30 °C in the presence of 12 μM GS-1 peptide substrate ([…]pSEDEEE, pS stands for phosphorylated serine, Biaffin GmbH & Co KG/proteinkinase.de) and 6 μM ATP (ultra pure, Promega) in a total volume of 5 μL kinase reaction buffer (40 mM Tris/HCl pH 7.5; 20 mM MgCl2; 0.1 mg/mL BSA). Kinase reaction mix was transferred to a solid white 384 well plate (NUNC, Thermo Scientific) and kinase reaction was stopped by adding 5 μL RT Kinase-Glo reagent. After 10 min luminescence was measured in an EnVision multilabel plate reader (Perkin Elmer, integration time 0.5 s/well). […] All samples were normalized to a negative control (reaction without kinase). Data points were plotted into Graphpad Prism, normalized to a DMSO control and IC50 values were calculated using nonlinear regression.

SMILES: CN(C)CCN(C)c1ccc(-c2c(C#N)c(N)nc3sc(C(=O)c4cccc(Cl)c4)c(N)c23)c(Cl)c1 [4h]
- IC50 [1]: 5.56 µM
- IC50 ([2]; 6 µM ATP, mean of three determinations, range in brackets, read-out: IC50 [µM], PfGSK-3 (Kinase Glo Plus)): 0.72 µM
- selectivity index plasmodial versus human GSK-3 ([2]; Kinase Glo Plus assay, PfGSK-3 versus HsGSK-3): 56
